Assay results published in patent US8586611B2 (priority 2005, dated 2013).
Where two headings read alike, the source gives them in different places.

What was measured:
Type in all cases: in vivo
[1] = tested on: Erysiphe graminis f. sp. tritici; test: Test E: wheat powdery mildew, spray the day before inoculation (disease rating, 100 = 100% disease control)
Outline: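 Protective test: spores of E. graminis f. sp. tritici dusted on wheat seedlings one day after run-off spraying of test suspension (acetone/water with 250 ppm surfactant; 200 ppm = 500 g/ha). Ratings after 7 days in growth chamber at 20° C, 100 = full control, 0 = none, relative to controls.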

Plasmopara viticola = test: Test B: grape downy mildew, spray 24 h after inoculation (disease rating, 100 = 100% disease control)
Outline: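 This is a curative spray test, applied 24 h after inoculation. Compounds in 50/50 acetone–water with 250 ppm Trem 014 surfactant were sprayed to run-off on P. viticola-infected seedlings, with 200 ppm equating to 500 g/ha. Plants were kept 5 days in a 20 °C growth chamber, then 24 h humid, and scored 0–100 for disease control relative to controls.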

Phytophthora infestans [2] = test: whole plant or invertebrate; conditions: for Test C disease rating (100 = 100% disease control, 0 = no disease control): tomato late blight
Phytophthora infestans [3] = test: whole plant or invertebrate; conditions: for Test D disease rating (100 = 100% disease control, 0 = no disease control): tomato late blight
[4] = spray the day before inoculation, tested at 10 ppm
[5] = spray 24 h after inoculation, tested at 10 ppm
[6] = spray 17 h after inoculation, tested at 10 ppm
[7] = spray the day before inoculation, compounds without asterisk (not 40 or 10 ppm)
[8] = spray 24 h after inoculation, compounds without asterisk (not 40 or 10 ppm)
[9] = spray 17 h after inoculation, compounds without asterisk (not 40 or 10 ppm)
[10] = spray the day before inoculation, tested at 40 ppm
[11] = spray 24 h after inoculation, tested at 40 ppm
[12] = spray 17 h after inoculation, tested at 40 ppm
[13] = sprayed the day before inoculation, 7 days at 20° C., unmarked compounds (no asterisk, not 40 or 10 ppm)
[14] = sprayed 24 h after inoculation, unmarked compounds (no asterisk, not 40 or 10 ppm)
[15] = sprayed the day before inoculation, unmarked compounds (no asterisk, not 40 or 10 ppm)
[16] = sprayed 17 h after inoculation, unmarked compounds (no asterisk, not 40 or 10 ppm)

Row | SMILES | Test E disease rating (100 = 100% disease control, 0 = no disease control) [1, 7] [%] | Test B disease rating (100 = 100% disease control, 0 = no disease control) (Plasmopara viticola; [8]) [%] | Test C disease rating (100 = 100% disease control, 0 = no disease control) (Phytophthora infestans [2]; [7]) [%] | Test D disease rating (100 = 100% disease control, 0 = no disease control) (Phytophthora infestans [3]; [9]) [%] | further results
1 | CC(C)c1cc(C(F)(F)F)nn1CC(=O)N1CCC(c2nc(C(=O)N(C)[C@@H]3CCCc4ccccc43)cs2)CC1 [compound 240] | – | – | – | – | Test E disease rating (100 = 100% disease control, 0 = no disease control) [1, 4]: 0%; Test B disease rating (100 = 100% disease control, 0 = no disease control) (Plasmopara viticola; [5]): 99%; Test C disease rating (100 = 100% disease control, 0 = no disease control) (Phytophthora infestans [2]; [4]): 100%; Test D disease rating (100 = 100% disease control, 0 = no disease control) (Phytophthora infestans [3]; [6]): 99%
2 | CC(c1ccncc1)N(C)C(=O)c1csc(C2CCN(C(=O)Cc3cccc(C(F)(F)F)c3)CC2)n1 (stereo not drawn) [compound 76] | 0 | 0 | 79 | 0 | –
3 | CNC(=O)OC1CCC(N(C)C(=O)c2csc(C3CCN(C(=O)Cn4nc(C(F)(F)F)cc4C)CC3)n2)c2ccccc21 (stereo not drawn) [compound 219] | 0 | 69 | 99 | 99 | –
4 | Cc1cc(C(F)(F)F)nn1CC(=O)N1CCC(c2nc(C(=O)N(C)C3CCCc4sccc43)cs2)CC1 (stereo not drawn) [compound 182] | – | – | – | – | Test E disease rating (100 = 100% disease control, 0 = no disease control) [1, 10]: 0%; Test B disease rating (100 = 100% disease control, 0 = no disease control) (Plasmopara viticola; [11]): 99%; Test C disease rating (100 = 100% disease control, 0 = no disease control) (Phytophthora infestans [2]; [10]): 100%; Test D disease rating (100 = 100% disease control, 0 = no disease control) (Phytophthora infestans [3]; [12]): 98%
5 | CCCN(C(=O)c1csc(C2CCN(C(=O)Cc3cc(C)ccc3C)CC2)n1)[C@H](C)c1ccccc1 [compound 287] | – | – | – | – | Test E disease rating (100 = 100% disease control, 0 = no disease control) [1, 13]: 0; Test B disease rating (100 = 100% disease control, 0 = no disease control) (Plasmopara viticola; [14]): 0; Test C disease rating (100 = 100% disease control, 0 = no disease control) (Phytophthora infestans [2]; [15]): 50; Test D disease rating (100 = 100% disease control, 0 = no disease control) (Phytophthora infestans [3]; [16]): 0
6 | CN(Cc1ccncc1)C(=O)c1csc(C2CCN(C(=O)Cc3cccc(C(F)(F)F)c3)CC2)n1 [compound 169] | 0 | 8 | 68 | 0 | –
7 | Cc1cc(C(F)(F)F)nn1CC(=O)N1CCC(c2nc(C(=O)N3CCCC4CCCCC43)cs2)CC1 (stereo not drawn) [compound 300] | – | – | – | – | Test E disease rating (100 = 100% disease control, 0 = no disease control) [1, 13]: 0; Test B disease rating (100 = 100% disease control, 0 = no disease control) (Plasmopara viticola; [14]): 62; Test C disease rating (100 = 100% disease control, 0 = no disease control) (Phytophthora infestans [2]; [15]): 97; Test D disease rating (100 = 100% disease control, 0 = no disease control) (Phytophthora infestans [3]; [16]): 58
8 | Cc1cccc(CC(=O)N2CCC(c3nc(C(=O)N(C)Cc4ccccn4)cs3)CC2)c1 [compound 165] | 0 | 11 | 14 | 0 | –
9 | CC(C)c1nccn1CC(=O)N1CCC(c2nc(C(=O)N(C)[C@H](C)c3ccccc3)cs2)CC1 [compound 139] | 0 | 0 | 0 | 0 | –
10 | CN(Cc1cccnc1)C(=O)c1csc(C2CCN(C(=O)Cc3cccc(C(F)(F)F)c3)CC2)n1 [compound 163] | 0 | 24 | 55 | 0 | –
11 | CN(C(=O)c1csc(C2CCN(C(=O)Cc3ccccn3)CC2)n1)[C@@H]1CCCc2ccccc21 [compound 205] | 0 | 0 | 75 | 17 | –
12 | Cc1cc(C(F)(F)F)nn1CC(=O)N1C(C)CN(c2nc(C(=O)N(C)[C@@H]3CCCc4ccccc43)cs2)CC1C (stereo partly drawn) [compound 292] | – | – | – | – | Test E disease rating (100 = 100% disease control, 0 = no disease control) [1, 13]: 0; Test B disease rating (100 = 100% disease control, 0 = no disease control) (Plasmopara viticola; [14]): 71; Test C disease rating (100 = 100% disease control, 0 = no disease control) (Phytophthora infestans [2]; [15]): 100; Test D disease rating (100 = 100% disease control, 0 = no disease control) (Phytophthora infestans [3]; [16]): 93
13 | CN(C(=O)c1csc(C2CCN(C(=O)Cn3nc(C(F)(F)F)cc3C(C)(C)C)CC2)n1)[C@@H]1CCCc2ccccc21 [compound 239] | – | – | – | – | Test E disease rating (100 = 100% disease control, 0 = no disease control) [1, 10]: 0%; Test B disease rating (100 = 100% disease control, 0 = no disease control) (Plasmopara viticola; [11]): 63%; Test C disease rating (100 = 100% disease control, 0 = no disease control) (Phytophthora infestans [2]; [10]): 57%; Test D disease rating (100 = 100% disease control, 0 = no disease control) (Phytophthora infestans [3]; [12]): 0%
14 | Cc1cc(C(F)(F)F)nn1CC(=O)N1CCC(c2nc(C(=O)N(C)C3CCCCc4ccccc43)cs2)CC1 (stereo not drawn) [compound 181] | – | – | – | – | Test E disease rating (100 = 100% disease control, 0 = no disease control) [1, 4]: 0%; Test B disease rating (100 = 100% disease control, 0 = no disease control) (Plasmopara viticola; [5]): 73%; Test C disease rating (100 = 100% disease control, 0 = no disease control) (Phytophthora infestans [2]; [4]): 100%; Test D disease rating (100 = 100% disease control, 0 = no disease control) (Phytophthora infestans [3]; [6]): 98%
15 | Cc1ccc(C)c(CC(=O)N2CCC(c3nc(C(=O)N(C)[C@H]4CCc5ccccc54)cs3)CC2)c1 [compound 131] | 0 | 77 | 55 | 62 | –
16 | CCCc1nc(C(F)(F)F)cn1CC(=O)N1CCC(c2nc(C(=O)N(C)[C@H](C)c3ccccc3)cs2)CC1 [compound 123] | 7 | 13 | 100 | 47 | –
17 | Cc1ccc(C)c(CC(=O)N2CCC(c3nc(C(=O)N(C)[C@@H]4CCCc5ccccc54)co3)CC2)c1 [Compound 153, 2-[1-[(2,5-dimethylphenyl)acetyl]-4-piperidinyl]-N-methyl-N-[(1R)-1,2,3,4-tetrahydro-1-naphthalenyl]-4-oxazolecarboxamide] | – | – | – | – | pest or weed control at 40 ppm ([1]; Blumeria graminis, topical, 168 h, spray the day before inoculation, tested at 40 ppm, read-out: Test E disease rating (100 = 100% disease control, 0 = no disease control)): 0%; pest or weed control at 40 ppm (Plasmopara viticola; Plasmopara viticola, 144 h, spray 24 h after inoculation, tested at 40 ppm, read-out: Test B disease rating (100 = 100% disease control, 0 = no disease control)): 99%; pest or weed control at 40 ppm (Phytophthora infestans [2]; Phytophthora infestans, in Solanum lycopersicum, 144 h, read-out: Test C disease rating (100 = 100% disease control, 0 = no disease control)): 100%; pest or weed control at 40 ppm (Phytophthora infestans [3]; Phytophthora infestans, in Solanum lycopersicum, topical, 96 h, read-out: Test D disease rating (100 = 100% disease control, 0 = no disease control)): 98%
18 | Cc1nc(C)n(CC(=O)N2CCC(c3nc(C(=O)N(C)[C@H](C)c4ccccc4)cs3)CC2)n1 [compound 120] | 0 | 7 | 51 | 100 | –
19 | C[C@@H](NC(=O)c1csc(C2CCN(C(=O)Cc3cccc(Br)c3)CC2)n1)c1cccc(C(F)(F)F)c1 [compound 277] | – | – | – | – | Test E disease rating (100 = 100% disease control, 0 = no disease control) [1, 13]: 0; Test B disease rating (100 = 100% disease control, 0 = no disease control) (Plasmopara viticola; [14]): 15; Test C disease rating (100 = 100% disease control, 0 = no disease control) (Phytophthora infestans [2]; [15]): 9; Test D disease rating (100 = 100% disease control, 0 = no disease control) (Phytophthora infestans [3]; [16]): 0
20 | COC(=O)C1CC(N(C)C(=O)c2csc(C3CCN(C(=O)Cn4nc(C(F)(F)F)cc4C)CC3)n2)c2ccccc21 (stereo not drawn) [compound 229] | 0 | 97 | 100 | 90 | –
21 | C[C@H](c1ccccc1)N(C)C(=O)c1csc(C2CCN(C(=O)Cn3cnc(C(C)(C)C)c3)CC2)n1 [compound 141] | 0 | 0 | 0 | 0 | –
